From PubChem BioAssay (NCI)
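Protocol summary: plate cells (96-well), add compound at 5 concentrations, incubate 48 h, interpolate endpoints linearly. GI50 marks 50% less growth. At the TGI there is no net growth.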

What was measured:
Test in all cases: NCI-60 cell line screen, 48 h
SF-295 CNS = system: SF-295 CNS
MDA-MB-435 = system: MDA-MB-435
SR leukemia = system: SR leukemia
OVCAR-4 ovarian = system: OVCAR-4 ovarian
PC-3 prostate = system: PC-3 prostate
SW-620 colon = system: SW-620 colon
HS 578T breast = system: HS 578T breast
DU-145 prostate = system: DU-145 prostate
RXF 393 renal = system: RXF 393 renal
HT29 colon = system: HT29 colon
EKVX NSCLC = system: EKVX NSCLC
NCI-H23 lung = system: NCI-H23 lung
U251 CNS = system: U251 CNS
HOP-62 NSCLC = system: HOP-62 NSCLC
ACHN renal = system: ACHN renal
COLO 205 colon = system: COLO 205 colon
SNB-19 CNS = system: SNB-19 CNS
OVCAR-5 ovarian = system: OVCAR-5 ovarian
MALME-3M melanoma = system: MALME-3M melanoma
NCI-H460 lung = system: NCI-H460 lung
HL-60(TB) leukemia = system: HL-60(TB) leukemia
SF-268 CNS = system: SF-268 CNS
RPMI-8226 leukemia = system: RPMI-8226 leukemia
BT-549 breast = system: BT-549 breast
SNB-75 CNS = system: SNB-75 CNS
A498 renal = system: A498 renal
UACC-62 melanoma = system: UACC-62 melanoma
K-562 leukemia = system: K-562 leukemia
HCT-116 colon = system: HCT-116 colon
OVCAR-3 ovarian = system: OVCAR-3 ovarian
MCF7 breast = system: MCF7 breast
MDA-MB-231 breast = system: MDA-MB-231 breast
NCI-H226 lung = system: NCI-H226 lung
NCI/ADR-RES ovarian = system: NCI/ADR-RES ovarian
HOP-92 NSCLC = system: HOP-92 NSCLC
SK-MEL-2 melanoma = system: SK-MEL-2 melanoma
IGROV1 ovarian = system: IGROV1 ovarian
T-47D breast = system: T-47D breast
OVCAR-8 ovarian = system: OVCAR-8 ovarian
SK-MEL-5 melanoma = system: SK-MEL-5 melanoma
KM12 colon = system: KM12 colon
UACC-257 melanoma = system: UACC-257 melanoma
MOLT-4 leukemia = system: MOLT-4 leukemia
HCC-2998 colon = system: HCC-2998 colon
A549 NSCLC = system: A549 NSCLC
M14 melanoma = system: M14 melanoma
SF-539 CNS = system: SF-539 CNS
UO-31 renal = system: UO-31 renal
LOX IMVI melanoma = system: LOX IMVI melanoma
CCRF-CEM leukemia = system: CCRF-CEM leukemia
786-0 renal = system: 786-0 renal
NCI-H522 lung = system: NCI-H522 lung
SK-OV-3 ovarian = system: SK-OV-3 ovarian
CAKI-1 renal = system: CAKI-1 renal
HCT-15 colon = system: HCT-15 colon
SN12C renal = system: SN12C renal
TK-10 renal = system: TK-10 renal
SK-MEL-28 melanoma = system: SK-MEL-28 melanoma

`CN1C(=O)N(C)C2C1NN=c1s/c(=C\c3ccc(F)cc3)c(=O)n12` (stereo unspecified) was tested, and the GI50 (SF-295 CNS) was 2.45 µM, the TGI (SF-295 CNS) was > 100 µM and the GI50 (MDA-MB-435) was 0.361 µM. The TGI (MDA-MB-435) was 1.71 µM, the GI50 (SR leukemia) was 0.374 µM and the TGI (SR leukemia) was 20 µM. The GI50 (OVCAR-4 ovarian) was 3.05 µM, the TGI (OVCAR-4 ovarian) was > 100 µM and the GI50 (PC-3 prostate) was 2.33 µM. The TGI (PC-3 prostate) was > 100 µM, the GI50 (SW-620 colon) was 1.86 µM and the TGI (SW-620 colon) was > 100 µM. The GI50 (HS 578T breast) was 2.08 µM, the TGI (HS 578T breast) was 7.31 µM and the GI50 (DU-145 prostate) was 3.22 µM. For the same molecule, the TGI (DU-145 prostate) was > 100 µM, the GI50 (RXF 393 renal) was 0.785 µM and the TGI (RXF 393 renal) was 6 µM. For the same molecule, the GI50 (HT29 colon) was 0.951 µM, the TGI (HT29 colon) was > 100 µM and the GI50 (EKVX NSCLC) was 4.02 µM. For the same molecule, the TGI (EKVX NSCLC) was > 100 µM, the GI50 (NCI-H23 lung) was 4.23 µM and the TGI (NCI-H23 lung) was > 100 µM. The GI50 (U251 CNS) was 3.06 µM, the TGI (U251 CNS) was > 100 µM and the GI50 (HOP-62 NSCLC) was 3.48 µM. The TGI (HOP-62 NSCLC) was > 100 µM, the GI50 (ACHN renal) was 4.39 µM and the TGI (ACHN renal) was > 100 µM. For the same molecule, the GI50 (COLO 205 colon) was 2.51 µM, the TGI (COLO 205 colon) was > 100 µM and the GI50 (SNB-19 CNS) was 5.57 µM. The TGI (SNB-19 CNS) was > 100 µM, the GI50 (OVCAR-5 ovarian) was 5.44 µM and the TGI (OVCAR-5 ovarian) was > 100 µM. The GI50 (MALME-3M melanoma) was 3.17 µM, the TGI (MALME-3M melanoma) was > 100 µM and the GI50 (NCI-H460 lung) was 2.77 µM. The TGI (NCI-H460 lung) was > 100 µM, the GI50 (HL-60(TB) leukemia) was 1.63 µM and the TGI (HL-60(TB) leukemia) was 4.53 µM. For the same molecule, the GI50 (SF-268 CNS) was 4.62 µM, the TGI (SF-268 CNS) was > 100 µM and the GI50 (RPMI-8226 leukemia) was 2.56 µM. The TGI (RPMI-8226 leukemia) was 8.91 µM, the GI50 (BT-549 breast) was 13.1 µM and the TGI (BT-549 breast) was > 100 µM. The GI50 (SNB-75 CNS) was 1.05 µM, the TGI (SNB-75 CNS) was 5.22 µM and the GI50 (A498 renal) was 1.39 µM. For the same molecule, the TGI (A498 renal) was 6.77 µM, the GI50 (UACC-62 melanoma) was 3.61 µM and the TGI (UACC-62 melanoma) was > 100 µM. The GI50 (K-562 leukemia) was 0.54 µM, the TGI (K-562 leukemia) was > 100 µM and the GI50 (HCT-116 colon) was 0.795 µM. For the same molecule, the TGI (HCT-116 colon) was > 100 µM, the GI50 (OVCAR-3 ovarian) was 1.24 µM and the TGI (OVCAR-3 ovarian) was 8.09 µM. For the same molecule, the GI50 (MCF7 breast) was 0.673 µM, the TGI (MCF7 breast) was > 100 µM and the GI50 (MDA-MB-231 breast) was 4.69 µM. The TGI (MDA-MB-231 breast) was > 100 µM, the GI50 (NCI-H226 lung) was 8.02 µM and the TGI (NCI-H226 lung) was > 100 µM. For the same molecule, the GI50 (NCI/ADR-RES ovarian) was 1.94 µM, the TGI (NCI/ADR-RES ovarian) was > 100 µM and the GI50 (HOP-92 NSCLC) was 8.49 µM. The TGI (HOP-92 NSCLC) was > 100 µM, the GI50 (SK-MEL-2 melanoma) was 4.13 µM and the TGI (SK-MEL-2 melanoma) was > 100 µM. For the same molecule, the GI50 (IGROV1 ovarian) was 3.21 µM, the TGI (IGROV1 ovarian) was > 100 µM and the GI50 (T-47D breast) was 1.25 µM. The TGI (T-47D breast) was > 100 µM, the GI50 (OVCAR-8 ovarian) was 3.78 µM and the TGI (OVCAR-8 ovarian) was > 100 µM. The GI50 (SK-MEL-5 melanoma) was 0.995 µM, the TGI (SK-MEL-5 melanoma) was 12 µM and the GI50 (KM12 colon) was 1.65 µM. The TGI (KM12 colon) was > 100 µM, the GI50 (UACC-257 melanoma) was 3.02 µM and the TGI (UACC-257 melanoma) was > 100 µM. The GI50 (MOLT-4 leukemia) was 3.07 µM, the TGI (MOLT-4 leukemia) was > 100 µM and the GI50 (HCC-2998 colon) was 13.4 µM. For the same molecule, the TGI (HCC-2998 colon) was > 100 µM, the GI50 (A549 NSCLC) was 4.88 µM and the TGI (A549 NSCLC) was > 100 µM. For the same molecule, the GI50 (M14 melanoma) was 2.24 µM, the TGI (M14 melanoma) was > 100 µM and the GI50 (SF-539 CNS) was 2.1 µM. The TGI (SF-539 CNS) was 5.72 µM, the GI50 (UO-31 renal) was 3.9 µM and the TGI (UO-31 renal) was > 100 µM. The GI50 (LOX IMVI melanoma) was 6.01 µM, the TGI (LOX IMVI melanoma) was > 100 µM and the GI50 (CCRF-CEM leukemia) was 1.91 µM. The TGI (CCRF-CEM leukemia) was > 100 µM, the GI50 (786-0 renal) was 7.55 µM and the TGI (786-0 renal) was > 100 µM. For the same molecule, the GI50 (NCI-H522 lung) was 2.22 µM, the TGI (NCI-H522 lung) was > 100 µM and the GI50 (SK-OV-3 ovarian) was 3.57 µM. The TGI (SK-OV-3 ovarian) was > 100 µM, the GI50 (CAKI-1 renal) was 1.68 µM and the TGI (CAKI-1 renal) was > 100 µM. The GI50 (HCT-15 colon) was 0.915 µM, the TGI (HCT-15 colon) was > 100 µM and the GI50 (SN12C renal) was 6.97 µM. For the same molecule, the TGI (SN12C renal) was > 100 µM, the GI50 (TK-10 renal) was 6.06 µM and the TGI (TK-10 renal) was > 100 µM. For the same molecule, the GI50 (SK-MEL-28 melanoma) was 7.31 µM and the TGI (SK-MEL-28 melanoma) was > 100 µM.
